For this assay, the target named is T1, human EGFR (His672-Ala1210) (Homo sapiens, UniProt P00533).
T1 construct: human EGFR (His672-Ala1210); GST (N); purchased Cell Signaling Technologies; host or cells: baculovirus expression system
T1 sequence (P00533 672-1210): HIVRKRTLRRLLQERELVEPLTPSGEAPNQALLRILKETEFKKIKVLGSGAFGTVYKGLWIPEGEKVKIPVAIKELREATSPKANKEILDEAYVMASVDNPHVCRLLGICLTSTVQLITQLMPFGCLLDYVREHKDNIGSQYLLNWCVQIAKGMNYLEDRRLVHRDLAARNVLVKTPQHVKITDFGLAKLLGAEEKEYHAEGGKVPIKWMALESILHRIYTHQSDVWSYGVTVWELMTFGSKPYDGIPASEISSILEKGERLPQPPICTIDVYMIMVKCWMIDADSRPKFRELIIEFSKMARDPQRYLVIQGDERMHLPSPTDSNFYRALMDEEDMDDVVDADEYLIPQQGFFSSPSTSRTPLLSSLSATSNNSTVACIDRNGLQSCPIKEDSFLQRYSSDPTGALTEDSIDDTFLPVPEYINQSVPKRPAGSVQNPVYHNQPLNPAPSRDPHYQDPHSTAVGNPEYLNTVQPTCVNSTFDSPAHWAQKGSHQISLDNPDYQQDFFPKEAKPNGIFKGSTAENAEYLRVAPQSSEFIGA
Put plainly: HTScan EGF Receptor Kinase Assay. The format is biochemical. How it is done: The ability of compounds to inhibit receptor kinase (EGFR) activity was assayed using HTSCAN™ EGF Receptor Kinase Assay Kits (Cell Signaling Technologies, Danvers, Mass.). […] The protein was purified by one-step affinity chromatography using glutathione-agarose.
Immediately transfer enzyme from −80° C. to ice. Allowed enzyme to thaw on ice. […] Returned immediately to ice. […] Incubated reaction plate at room temperature for 30 minutes. […] Added 100 μl/well primary antibody. Incubated at room temperature for 60 minutes. […] Added 100 μl/well diluted antibody. Incubated at room temperature for 30 minutes. […] Incubated at room temperature for 5 minutes.
Turning to `COc1cc2ncnc(Nc3ccc(F)c(Cl)c3)c2cc1OCC(=O)NO` [Compound 1, 2-(4-(3-Chloro-4-fluorophenylamino)-7-methoxyquinazolin-6-yloxy)-N-hydroxyacetamide], the concentration for half-maximal inhibition (IC50) (in general, the concentration needed to halve the response being measured) was < 100 nM.

For the compound `COc1cc2ncnc(Nc3ccc(F)c(Cl)c3)c2cc1OCCC(=O)NO` [Compound 2], the IC50 was < 100 nM.

Take `COc1cc2ncnc(Nc3ccc(F)c(Cl)c3)c2cc1OCCCC(=O)NO` [Compound 3, 4-(4-(3-Chloro-4-fluorophenylamino)-7-methoxyquinazolin-6-yloxy)-N-hydroxybutanamide]: the IC50 was < 100 nM.

With `COc1cc2ncnc(Nc3ccc(F)c(Cl)c3)c2cc1OCCCCC(=O)NO` [Compound 4], the IC50 is < 100 nM.

Consider `COc1cc2ncnc(Nc3ccc(F)c(Cl)c3)c2cc1OCCCCCC(=O)NO` [Compound 5], for which the half-maximal inhibitory concentration (IC50) was < 100 nM.

Turning to `C#Cc1cccc(Nc2ncnc3cc(OC)c(OCC(=O)NO)cc23)c1` [Compound 7, 2-(4-(3-ethynylphenylamino)-7-methoxyquinazolin-6-yloxy)-N-hydroxyacetamide], the IC50 was < 100 nM.

As for `C#Cc1cccc(Nc2ncnc3cc(OC)c(OCCC(=O)NO)cc23)c1` [Compound 8], the 50% inhibitory concentration (IC50) is < 100 nM.

With `C#Cc1cccc(Nc2ncnc3cc(OC)c(OCCCC(=O)NO)cc23)c1` [Compound 9, 4-(4-(3-ethynylphenylamino)-7-methoxyquinazolin-6-yloxy)-N-hydroxybutanamide], the half-maximal inhibitory concentration (IC50) was < 100 nM.

Consider `C#Cc1cccc(Nc2ncnc3cc(OC)c(OCCCCCC(=O)NO)cc23)c1` [Compound 11, 6-(4-(3-ethynylphenylamino)-7-methoxyquinazolin-6-yloxy)-N-hydroxyhexanamide], for which the IC50 was < 100 nM.

For `O=C(COc1ccc2ncnc(Nc3ccc(F)c(Cl)c3)c2c1)NO` [Compound 13, 2-(4-(3-chloro-4-fluorophenylamino)quinazolin-6-yloxy)-N-hydroxyacetamide], the IC50 is < 100 nM.

Consider `O=C(CCOc1ccc2ncnc(Nc3ccc(F)c(Cl)c3)c2c1)NO` [Compound 14], for which the IC50 was < 100 nM.

Consider `O=C(CCCCOc1ccc2ncnc(Nc3ccc(F)c(Cl)c3)c2c1)NO` [Compound 16, 5-(4-(3-chloro-4-fluorophenylamino)quinazolin-6-yloxy)-N-hydroxypentanamide], for which the half-maximal inhibitory concentration (IC50) was < 100 nM.

For the compound `O=C(CCCCCOc1ccc2ncnc(Nc3ccc(F)c(Cl)c3)c2c1)NO` [Compound 17, 6-(4-(3-chloro-4-fluorophenylamino)quinazolin-6-yloxy)-N-hydroxy hexanamide], the concentration for half-maximal inhibition (IC50) is < 100 nM.

Consider `O=C(CCCCCCOc1ccc2ncnc(Nc3ccc(F)c(Cl)c3)c2c1)NO` [Compound 18, 7-(4-(3-chloro-4-fluorophenylamino)quinazolin-6-yloxy)-N-hydroxyheptanamide], for which the half-maximal inhibitory concentration (IC50) was < 100 nM.

As to `C#Cc1cccc(Nc2ncnc3ccc(OCC(=O)NO)cc23)c1` [Compound 19, 2-(4-(3-ethynylphenylamino)quinazolin-6-yloxy)-N-hydroxyacetamide], the IC50 was < 100 nM.

Regarding `C#Cc1cccc(Nc2ncnc3ccc(OCCCC(=O)NO)cc23)c1` [Compound 21, 4-(4-(3-ethynylphenylamino)quinazolin-6-yloxy)-N-hydroxybutanamide], the half-inhibitory concentration (IC50) was 100 to 1000 nM.

For `C#Cc1cccc(Nc2ncnc3ccc(OCCCCC(=O)NO)cc23)c1` [Compound 22], the IC50 is < 100 nM.

Regarding `C#Cc1cccc(Nc2ncnc3ccc(OCCCCCC(=O)NO)cc23)c1` [Compound 23, 6-(4-(3-ethynylphenylamino)quinazolin-6-yloxy)-N-hydroxyhexanamide], the 50% inhibitory concentration (IC50) fell in the range of 100 to 1000 nM.

As to `C#Cc1cccc(Nc2ncnc3ccc(OCCCCCCC(=O)NO)cc23)c1` [Compound 24, 7-(4-(3-ethynylphenylamino)quinazolin-6-yloxy)-N-hydroxyheptanamide], the IC50 was 100 to 1000 nM.

As to `COCCOc1cc2ncnc(Nc3ccc(F)c(Cl)c3)c2cc1OCCCCCCC(=O)NO` [Compound 30, 7-(4-(3-Chloro-4-fluorophenylamino)-7-(2-methoxyethoxy)quinazolin-6-yloxy)-N-hydroxyheptanamide], the IC50 is < 100 nM.

Consider `C#Cc1cccc(Nc2ncnc3cc(OCCOC)c(OCCCCCCC(=O)NO)cc23)c1` [Compound 36, 7-(4-(3-Ethynylphenylamino)-7-(2-methoxyethoxy)quinazolin-6-yloxy)-N-hydroxyheptanamide], for which the IC50 was < 100 nM.

Turning to `COc1cc2ncnc(Nc3ccc(F)c(Cl)c3)c2cc1NC(=O)CCCC(=O)NO` [Compound 38, N^1-(4-(3-chloro-4-fluorophenylamino)-7-methoxyquinazolin-6-yl)-N^5-hydroxyglutaramide], the IC50 was < 100 nM.

With `COc1cc2ncnc(Nc3ccc(F)c(Cl)c3)c2cc1NC(=O)CCCCCCC(=O)NO` [Compound 40, N^1-(4-(3-chloro-4-fluorophenylamino)-7-methoxyquinazolin-6-yl)-N^8-hydroxyoctanediamide], the 50% inhibitory concentration (IC50) was < 100 nM.

`C#Cc1cccc(Nc2ncnc3cc(OC)c(NC(=O)CCCC(=O)NO)cc23)c1` [Compound 42, N^1-(4-(3-ethynylphenylamino)-7-methoxyquinazolin-6-yl)-N^5-hydroxyglutaramide]: the half-maximal inhibitory concentration (IC50) is < 100 nM.

For `C#Cc1cccc(Nc2ncnc3cc(OC)c(NC(=O)CCCCC(=O)NO)cc23)c1` [Compound 43, N^1-(4-(3-ethynylphenylamino)-7-methoxyquinazolin-6-yl)-N^6-hydroxyadipamide], the half-inhibitory concentration (IC50) was < 100 nM.

With `C#Cc1cccc(Nc2ncnc3cc(OC)c(NC(=O)CCCCCCC(=O)NO)cc23)c1` [Compound 44, N^1-(4-(3-ethynylphenylamino)-7-methoxyquinazolin-6-yl)-N^8-hydroxyoctanediamide], the 50% inhibitory concentration (IC50) was < 100 nM.

With `Nc1cc(Br)ccc1NC(=O)COc1ccc2ncnc(Nc3ccc(F)c(Cl)c3)c2c1` [Compound 45], the IC50 lay in the range of 100 to 1000 nM.

With `C[C@@H](Nc1ncnc2ccc(OCCCCCC(=O)NO)cc12)c1ccccc1` [Compound 50], the IC50 is 100 to 1000 nM.

On to `COc1cc2ncnc(Nc3ccc(F)c(Cl)c3)c2cc1OCCOc1ccc(/C=C/C(=O)NO)cc1` [Compound 66, (E)-3-(4-(2-(4-(3-chloro-4-fluorophenylamino)-7-methoxyquinazolin-6-yloxy)ethoxy)phenyl)-N-hydroxyacrylamide], for which the half-maximal inhibitory concentration (IC50) was < 100 nM.

Regarding `COCCOc1cc2ncnc(Nc3ccc(F)c(Cl)c3)c2cc1NC(=O)CCCC(=O)NO` [Compound 68, N^1-(4-(3-chloro-4-fluorophenylamino)-7-(2-methoxyethoxy)quinazolin-6-yl)-N^5-hydroxyglutaramide], the IC50 was < 100 nM.

In the case of `COCCOc1cc2ncnc(Nc3ccc(F)c(Cl)c3)c2cc1NC(=O)CCCCC(=O)NO` [Compound 69, N^1-(4-(3-chloro-4-fluorophenylamino)-7-(2-methoxyethoxy)quinazolin-6-yl)-N^6-hydroxyadipamide], the IC50 was < 100 nM.

On to `C#Cc1cc(Nc2ncnc3cc(OC)c(OCCCCCCC(=O)NO)cc23)ccc1F` [Compound 75, 7-(4-(3-ethynyl-4-fluorophenylamino)-7-methoxyquinazolin-6-yloxy)-N-hydroxyheptanamide], for which the IC50 is < 100 nM.

`C#Cc1cc(Nc2ncnc3cc(OCCOC)c(OCCCCCCC(=O)NO)cc23)ccc1F` [Compound 76]: the IC50 was < 100 nM.

Regarding `COc1cc2ncnc(N[C@H](C)c3ccccc3)c2cc1OCCCCCC(=O)NO` [Compound 77, (R)—N-hydroxy-6-(7-methoxy-4-(1-phenylethylamino)quinazolin-6-yloxy)-hexanamide], the IC50 was < 100 nM.

Turning to `COc1cc2ncnc(N[C@H](C)c3ccc(F)cc3)c2cc1OCCCCCCC(=O)NO` [Compound 81, (R)-7-(4-(1-(4-fluorophenyl)ethylamino)-7-methoxyquinazolin-6-yloxy)-N-hydroxyheptanamide], the IC50 fell in the range of 100 to 1000 nM.

Compound `COc1cc2ncnc(N[C@H](C)c3ccc(Cl)cc3)c2cc1OCCCCCCC(=O)NO` [Compound 82, (R)-7-(4-(1-(4-chlorophenyl)ethylamino)-7-methoxyquinazolin-6-yloxy)-N-hydroxyheptanamide] registered a half-maximal inhibitory concentration (IC50) of 100 to 1000 nM.

Regarding `COc1ccc([C@@H](C)Nc2ncnc3cc(OC)c(OCCCCCCC(=O)NO)cc23)cc1` [Compound 83, (R)—N-hydroxy-7-(7-methoxy-4-(1-(4-methoxyphenyl)ethylamino)quinazolin-6-yloxy)-heptanamide], the half-inhibitory concentration (IC50) is > 10000 nM.

`COc1cc2ncnc(NCCc3ccccc3)c2cc1OCCCCCCC(=O)NO` [Compound 84] came in with an IC50 of 100 to 1000 nM.

Turning to `COc1cc2ncnc(NCc3ccc(F)c(F)c3)c2cc1OCCCCCCC(=O)NO` [Compound 87, 7-(4-(3,4-difluorobenzylamino)-7-methoxyquinazolin-6-yloxy)-N-hydroxyheptanamide], the half-inhibitory concentration (IC50) lay in the range of 100 to 1000 nM.

For the compound `COc1cc2ncnc(NCc3ccc(F)c(Cl)c3)c2cc1OCCCCCCC(=O)NO` [Compound 88, 7-(4-(3-chloro-4-fluorobenzylamino)-7-methoxyquinazolin-6-yloxy)-N-hydroxyheptanamide], the half-inhibitory concentration (IC50) is < 100 nM.

`COc1cc2ncnc(NCc3cccc(Br)c3)c2cc1OCCCCCCC(=O)NO` [Compound 89, 7-(4-(3-bromobenzylamino)-7-methoxyquinazolin-6-yloxy)-N-hydroxyheptanamide] gave a concentration for half-maximal inhibition (IC50) of 100 to 1000 nM.

With `COc1cc2ncnc(Nc3ccc(F)c(Cl)c3)c2cc1OCCOc1ccc(CC(=O)NO)cc1` [Compound 91], the IC50 is < 100 nM.

For `COc1cc2ncnc(Nc3ccc(F)c(Cl)c3)c2cc1NC(=O)Nc1ccc(C(=O)NO)cc1` [Compound 93], the IC50 was < 100 nM.

Turning to `COc1cc2ncnc(Nc3ccc(F)c(Cl)c3)c2cc1OCCCCCCC(=O)N(C)O` [Compound 94], the IC50 was < 100 nM.

The values above are taken from patent publication US8975401B2, “Quinazoline based EGFR inhibitors containing a zinc binding moiety” (Curis, Inc., priority 2006, dated 2015).
